Source: patent publication US7928126B2, “Cyanopyridine derivative and use thereof as medicine” (Mitsubishi Tanabe Pharma Corporation, priority 2005, dated 2011)
Structures can show the parent of a compound that is named as a salt.

Assays:
Format in all cases: biochemical
[1] = biological target: T1, aurora 2 kinase (Homo sapiens, UniProt O14965); experiment: Aurora 2 kinase assay (32P-ATP, peptide substrate LRRASLG); conditions: room temperature 60 min
T1 construct: The amplified gene encoding aurora 2 kinase was introduced into Escherichia coli expression vector pET32a; made in house; host or cells: Escherichia coli BL21R (Novagen), vector pET32a
T1 sequence (O14965 1-403): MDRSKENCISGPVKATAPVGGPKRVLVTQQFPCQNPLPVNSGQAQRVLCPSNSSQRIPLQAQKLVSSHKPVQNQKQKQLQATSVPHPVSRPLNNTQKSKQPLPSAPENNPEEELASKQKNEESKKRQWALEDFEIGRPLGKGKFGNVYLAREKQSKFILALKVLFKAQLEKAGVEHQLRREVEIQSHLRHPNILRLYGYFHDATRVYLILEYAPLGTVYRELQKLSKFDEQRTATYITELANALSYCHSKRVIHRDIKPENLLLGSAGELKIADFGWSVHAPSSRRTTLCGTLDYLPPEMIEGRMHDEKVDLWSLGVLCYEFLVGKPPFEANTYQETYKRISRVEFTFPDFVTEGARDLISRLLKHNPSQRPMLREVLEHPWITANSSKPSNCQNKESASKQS

[2] = biological target: T2, Porcine brain tubulin protein (Sus scrofa, UniProt P02550+P02554); experiment: Tubulin polymerization assay (turbidity at 405 nm); conditions: 10 μM compound, maximum polymerization rate, 37° C.; read-out: inhibitory rate (%)
T2 construct: 3.3 mg/ml Porcine brain tubulin protein: Cytoskeleton; purchased Cytoskeleton; host or cells: porcine brain (tissue-derived)
Protocol: A tubulin polymerization reaction mixture (50 μL) (80 mM Pipes pH=6.9, 0.5 mM MgCl2, 1 mM EGTA, 1 mM GTP, 3.3 mg/ml Porcine brain tubulin protein: Cytoskeleton, 10 μM compound) was prepared in a 96 well flat bottom plate under ice-cooling. This was placed in a plate reader (IWAKI microplate reader, EZS-ABS) controlled to a temperature of 37° C., whereby a temperature dependent tubulin polymerization reaction was initiated. Since the turbidity of the reaction mixture increases as the tubulin polymerization proceeds, the absorbance at 405 nm was measured every other minute for 30 min to monitor the polymerization reaction. Of the 30 min measures, the three largest differences per min of turbidity (generally those immediately after start of the reaction) were taken, and the average of the three values was calculated and taken as the maximum polymerization rate. Inhibitory percent (%)=(C−T)/C×100 wherein T is the maximum polymerization rate of the reaction mixture containing the compound, and C is the maximum polymerization rate of the reaction mixture without the compound.

[3] = biological target: T3, aurora 1 kinase (Homo sapiens, UniProt Q96GD4); experiment: Aurora 1 kinase assay (32P-ATP, peptide substrate LRRWSLG); conditions: room temperature 60 min
T3 construct: purchased UPSTATE
T3 sequence (Q96GD4 whole entry): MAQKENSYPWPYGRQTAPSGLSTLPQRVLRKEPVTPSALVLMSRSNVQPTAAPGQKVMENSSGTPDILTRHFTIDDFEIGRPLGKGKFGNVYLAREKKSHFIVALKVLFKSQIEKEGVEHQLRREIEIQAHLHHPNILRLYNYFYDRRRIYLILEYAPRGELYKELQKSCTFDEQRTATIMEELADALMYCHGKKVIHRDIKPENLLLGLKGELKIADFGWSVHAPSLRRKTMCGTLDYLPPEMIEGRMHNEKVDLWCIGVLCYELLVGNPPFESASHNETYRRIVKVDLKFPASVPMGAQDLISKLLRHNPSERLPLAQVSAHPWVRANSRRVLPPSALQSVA

T2 sequence (P02550 whole entry): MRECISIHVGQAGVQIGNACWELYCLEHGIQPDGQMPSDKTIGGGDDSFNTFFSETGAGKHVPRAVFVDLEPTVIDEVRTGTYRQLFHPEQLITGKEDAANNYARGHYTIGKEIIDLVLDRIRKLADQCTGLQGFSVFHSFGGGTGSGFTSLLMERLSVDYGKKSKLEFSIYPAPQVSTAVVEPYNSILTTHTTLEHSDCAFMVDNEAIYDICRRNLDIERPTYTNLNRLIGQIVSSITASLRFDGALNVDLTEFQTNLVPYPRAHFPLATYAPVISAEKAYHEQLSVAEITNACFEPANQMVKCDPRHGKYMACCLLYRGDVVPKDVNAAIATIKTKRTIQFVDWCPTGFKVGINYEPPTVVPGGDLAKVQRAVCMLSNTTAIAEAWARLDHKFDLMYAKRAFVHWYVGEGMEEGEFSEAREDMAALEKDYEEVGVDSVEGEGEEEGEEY
T2 sequence (P02554 whole entry): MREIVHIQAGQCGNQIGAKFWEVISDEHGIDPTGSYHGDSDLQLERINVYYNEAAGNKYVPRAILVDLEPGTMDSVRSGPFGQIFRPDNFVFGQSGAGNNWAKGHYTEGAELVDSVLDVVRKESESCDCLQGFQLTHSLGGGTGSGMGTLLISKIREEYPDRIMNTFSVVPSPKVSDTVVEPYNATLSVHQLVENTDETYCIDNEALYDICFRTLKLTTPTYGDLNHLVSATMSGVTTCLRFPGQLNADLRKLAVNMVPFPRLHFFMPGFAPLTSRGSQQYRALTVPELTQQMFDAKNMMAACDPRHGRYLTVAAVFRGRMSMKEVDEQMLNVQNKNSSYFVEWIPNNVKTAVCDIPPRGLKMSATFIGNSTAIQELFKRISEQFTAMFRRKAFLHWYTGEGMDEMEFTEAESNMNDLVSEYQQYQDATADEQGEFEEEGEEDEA

Structure (SMILES) | Ki [1] [nM] | inhibition at 10 µM [2] [%] | Ki [3] [nM]
COc1ccc(OCCNc2nc(Nc3cc(C)[nH]n3)cc(C)c2C#N)cc1 [Example 5, 2-(2-(4-methoxyphenoxy)ethylamino)-6-(5-methyl-1H-pyrazol-3-ylamino)-4-methylnicotinonitrile hydrochloride] | 26 | 51 | 
Cc1cc(Nc2cc(-c3cccnc3)c(C#N)c(NCCOc3cccc(F)c3)n2)n[nH]1 [Example 18, 2-(2-(3-fluorophenoxy)ethylamino)-6-(5-methyl-1H-pyrazol-3-ylamino)-4-(pyridin-3-yl)nicotinonitrile dihydrochloride] | 2 | 79 | 
Cc1cc(Nc2cc(C)c(C#N)c(NCCOc3ccc(F)cc3)n2)n[nH]1 [Example 10, 2-(2-(4-fluorophenoxy)ethylamino)-6-(5-methyl-1H-pyrazol-3-ylamino)-4-methylnicotinonitrile] | 3 | 44 | 
Cc1cc(Nc2cc(C(F)(F)F)c(C#N)c(NCCOc3ccccc3)n2)n[nH]1 [Example 3, 2-(2-phenoxyethylamino)-6-(5-methyl-1H-pyrazol-3-ylamino)-4-trifluoromethylnicotinonitrile] | 15 | 36 | 
Cc1cc(Nc2ccc(C#N)c(NCCOc3cccc(F)c3)n2)n[nH]1 [Example 15, 2-(2-(3-fluorophenoxy)ethylamino)-6-(5-methyl-1H-pyrazol-3-ylamino)nicotinonitrile] | 2 | 69 | 
Cc1cc(Nc2cc(C)c(C#N)c(NCCOc3ccncc3)n2)n[nH]1 [Example 11, 2-(2-(pyridin-4-yloxy)ethylamino)-6-(5-methyl-1H-pyrazol-3-ylamino)-4-methylnicotinonitrile] | 24 | 42 | 
Cc1cc(Nc2cc(C)c(C#N)c(NCCOc3ccccn3)n2)n[nH]1 [Example 7, 2-(2-(pyridin-2-yloxy)ethylamino)-6-(5-methyl-1H-pyrazol-3-ylamino)-4-methylnicotinonitrile dihydrochloride] | 6 | 63 | 
Cc1cc(Nc2cc(-c3cccnc3)c(C#N)c(NCCOc3ccccc3)n2)n[nH]1 [Example 6, 2-(2-phenoxyethylamino)-6-(5-methyl-1H-pyrazol-3-ylamino)-4-(pyridin-3-yl)nicotinonitrile] | 3 | < 0 | 
COc1ccc(-c2cc(Nc3cc(C)[nH]n3)nc(NCCOc3ccccc3Cl)c2C#N)cc1 [Example 26, 2-(2-(2-chlorophenoxy)ethylamino)-6-(5-methyl-1H-pyrazol-3-ylamino)-4-(4-methoxyphenyl)nicotinonitrile hydrochloride] | 13 | 48 | 
Cc1cc(Nc2cc(C)c(C#N)c(NCCOc3ccc(F)c(Cl)c3)n2)n[nH]1 [Example 16, 2-(2-(3-chloro-4-fluorophenoxy)ethylamino)-6-(5-methyl-1H-pyrazol-3-ylamino)-4-methylnicotinonitrile] | 3 | 65 | 
COc1ccccc1OCCNc1nc(Nc2cc(C)[nH]n2)cc(C)c1C#N [Example 8, 2-(2-(2-methoxyphenoxy)ethylamino)-6-(5-methyl-1H-pyrazol-3-ylamino)-4-methylnicotinonitrile] | 6 | 42 | 
Cc1cc(Nc2cc(-c3ccccc3)c(C#N)c(NCCOc3ccccc3)n2)n[nH]1 [Example 1, 2-(2-phenoxyethylamino)-6-(5-methyl-1H-pyrazol-3-ylamino)-4-phenylnicotinonitrile] | 19 | 51 | 
Cc1ccc(OCCNc2nc(Nc3cc(C)[nH]n3)ccc2C#N)c(C)n1 [Example 29, 2-(2-(2,6-dimethylpyridin-3-yloxy)ethylamino)-6-(5-methyl-1H-pyrazol-3-ylamino)nicotinonitrile dihydrochloride] | 66 | 42 | 
Cc1cc(Nc2cc(C)c(C#N)c(NCCOc3ccccc3Cl)n2)n[nH]1 [Example 24, 2-(2-(2-chlorophenoxy)ethylamino)-6-(5-methyl-1H-pyrazol-3-ylamino)-4-methylnicotinonitrile hydrochloride] | 1 | 73 | 
Cc1cc(Nc2cc(C(C)C)n[nH]2)nc(NCCOc2cccnc2)c1C#N [Example 35, 6-(5-isopropyl-1H-pyrazol-3-ylamino)-4-methyl-2-(2-(pyridin-3-yloxy)ethylamino)nicotinonitrile] |  |  | ≤ 100
Cc1ccc(OCCNc2nc(Nc3cc(C)[nH]n3)ccc2C#N)cn1 [Example 27, 2-(2-(6-methylpyridin-3-yloxy)ethylamino)-6-(5-methyl-1H-pyrazol-3-ylamino)nicotinonitrile dihydrochloride] | 3 | 57 | ≤ 100
Cc1cc(Nc2ccc(C#N)c(NCCOc3cccnc3)n2)n[nH]1 [Example 17, 2-(2-(pyridin-3-yloxy)ethylamino)-6-(5-methyl-1H-pyrazol-3-ylamino)nicotinonitrile] | 2 | 67 | 
COc1ccc(-c2cc(Nc3cc(C)[nH]n3)nc(NCCOc3ccccc3)c2C#N)cc1 [Example 4, 2-(2-phenoxyethylamino)-6-(5-methyl-1H-pyrazol-3-ylamino)-4-(4-methoxyphenyl)nicotinonitrile] | 15 | 63 | 
Cc1cc(Nc2cc(C3CC3)n[nH]2)nc(NCCOc2cccnc2)c1C#N [Example 34, 6-(5-cyclopropyl-1H-pyrazol-3-ylamino)-4-methyl-2-(2-(pyridin-3-yloxy)ethylamino)nicotinonitrile] |  |  | ≤ 100
Cc1cc(Nc2cc(C)c(C#N)c(NCCOc3cc(F)cc(F)c3)n2)n[nH]1 [Example 20, 2-(2-(3,5-difluorophenoxy)ethylamino)-6-(5-methyl-1H-pyrazol-3-ylamino)-4-methylnicotinonitrile hydrochloride] | 2 | 75 | 
Cc1cc(Nc2ccc(C#N)c(NCCOc3ccccc3Cl)n2)n[nH]1 [Example 25, 2-(2-(2-chlorophenoxy)ethylamino)-6-(5-methyl-1H-pyrazol-3-ylamino)nicotinonitrile hydrochloride] | 2 | 51 | ≤ 100
Cc1cc(Nc2ccc(C#N)c(NCCOc3ccc(OC(F)(F)F)cc3)n2)n[nH]1 [Example 30, 2-(2-(4-(trifluoromethoxy)phenoxy)ethylamino)-6-(5-methyl-1H-pyrazol-3-ylamino)nicotinonitrile] | 80 | 34 | 
Cc1cc(Nc2cc(C)c(C#N)c(NCCOc3ccccc3F)n2)n[nH]1 [Example 13, 2-(2-(2-fluorophenoxy)ethylamino)-6-(5-methyl-1H-pyrazol-3-ylamino)-4-methylnicotinonitrile hydrochloride] | 2 | 69 | ≤ 100
Cc1cc(Nc2ccc(C#N)c(NCCOc3ccccc3)n2)n[nH]1 [Example 14, 2-(2-phenoxyethylamino)-6-(5-methyl-1H-pyrazol-3-ylamino)nicotinonitrile] | 3 | 55 | 
Cc1cc(Nc2ccc(C#N)c(NCCOc3ccccc3F)n2)n[nH]1 [Example 19, 2-(2-(2-fluorophenoxy)ethylamino)-6-(5-methyl-1H-pyrazol-3-ylamino)nicotinonitrile hydrochloride] | 1 | 59 | 
